Laboratory results: ChEMBL document CHEMBL5321293, “Discovery of ERD-3111 as a Potent and Orally Efficacious Estrogen Receptor PROTAC Degrader with Strong Antitumor Activity” (J Med Chem, 2023)

Experiments:
[1] = target: Cytochrome P450 2C9 (Homo sapiens, UniProt P11712); assay: Inhibition of CYP2C9 in human liver microsomes preincubated for 5 mins in presence substrate followed by NADPH addition and measured after 10 mins by LC-MS/MS analysis; format: ADME, Microsome
[2] = target: Cytochrome P450 2D6 (Homo sapiens, UniProt P10635); assay: Inhibition of CYP2D6 in human liver microsomes preincubated for 5 mins in presence substrate followed by NADPH addition and measured after 10 mins by LC-MS/MS analysis; format: ADME, Microsome
[3] = Drug concentration in plasma of CB17 SCID mouse xenografted with human MCF7 cells harboring wild type ESR1 at 10 mg/kg, po qd for 3 days and measured after 6 hrs last dose by LC-MS/MS analysis; format: ADME, organism-based; settings: time 3 day
[4] = Downregulation of ERalpha protein expression in tumor of CB17 SCID mouse xenografted with human MCF7 cells harboring wild type ESR1 at 10 mg/kg, po qd for 3 days and measured after 6 hrs last dose by Western blot analysis relative to control; format: functional; settings: time 3 day
[5] = Toxicity in CB17 SCID mouse xenografted with human MCF7 cells harboring ESR1 Y537S mutant assessed as body weight change at 10 mg/kg,po qd for 4 weeks; format: organism-based; settings: in vivo, 672 h
[6] = target: Cytochrome P450 2C19 (Homo sapiens, UniProt P33261); assay: Inhibition of CYP2C19 in human liver microsomes preincubated for 5 mins in presence substrate followed by NADPH addition and measured after 10 mins by LC-MS/MS analysis; format: ADME, Microsome
[7] = Drug concentration in tumor of CB17 SCID mouse xenografted with human MCF7 cells harboring wild type ESR1 at 30 mg/kg, po qd for 3 days and measured after 3 hrs last dose by LC-MS/MS analysis; format: ADME, organism-based, Neoplasm; settings: time 3 day, read-out: Ct
[8] = AUC in Beagle dog at 1 mg/kg, po and measured upto 24 hrs by LC-MS/MS analysis; format: ADME, organism-based, Canis lupus familiaris; parameters: dose 1 mg/kg, time < 24 hrs, route po; settings: in vivo
[9] = Drug concentration in plasma of CB17 SCID mouse xenografted with human MCF7 cells harboring wild type ESR1 at 10 mg/kg, po qd for 3 days and measured after 24 hrs last dose by LC-MS/MS analysis; format: ADME, organism-based; settings: time 3 day
[10] = Downregulation of ERalpha protein expression in tumor of CB17 SCID mouse xenografted with human MCF7 cells harboring wild type ESR1 at 30 mg/kg, po qd for 3 days and measured after 6 hrs last dose by Western blot analysis relative to control; format: functional; settings: time 3 day
[11] = Clearance in Sprague-Dawley rat at 1 mg/kg, iv and measured upto 24 hrs by LC-MS/MS analysis; settings: in vivo
[12] = system: MCF7; assay: Antitumor activity against human MCF7 cells harboring wild type ESR1 xenografted in CB17 SCID mouse assessed as tumor growth inhibition at 10 mg/kg, po qd for 5 weeks and measured 3 weeks post last dose; format: functional; settings: MCF7, 840 h, read-out: TGI
[13] = system: MCF7; assay: Antitumor activity against human MCF7 cells harboring ESR1 Y537S mutant xenografted in CB17 SCID mouse assessed as tumor growth inhibition at 10 mg/kg, po qd for 4 weeks and measured 30 days post last dose; format: functional; settings: MCF7, 672 h, read-out: TGI
[14] = system: MCF7; assay: Antitumor activity against human MCF7 cells harboring ESR1 D538G mutant xenografted in CB17 SCID mouse assessed as tumor growth inhibition at 10 mg/kg, po qd for 4 weeks; format: functional; settings: MCF7, 672 h, read-out: TGI
[15] = Drug concentration in tumor of CB17 SCID mouse xenografted with human MCF7 cells harboring wild type ESR1 at 10 mg/kg, po qd for 3 days and measured after 6 hrs last dose by LC-MS/MS analysis; format: ADME, organism-based, Neoplasm; settings: time 3 day, read-out: Ct
[16] = in vivo; settings: Sprague-Dawley, rat, po, 3 mg/kg
[17] = target: T1, Cytochrome P450 1A2 (Homo sapiens, UniProt P05177); assay: Inhibition of CYP1A2 in human liver microsomes preincubated for 5 mins in presence substrate followed by NADPH addition and measured after 10 mins by LC-MS/MS analysis; format: ADME, Microsome
T1 sequence (P05177 whole entry): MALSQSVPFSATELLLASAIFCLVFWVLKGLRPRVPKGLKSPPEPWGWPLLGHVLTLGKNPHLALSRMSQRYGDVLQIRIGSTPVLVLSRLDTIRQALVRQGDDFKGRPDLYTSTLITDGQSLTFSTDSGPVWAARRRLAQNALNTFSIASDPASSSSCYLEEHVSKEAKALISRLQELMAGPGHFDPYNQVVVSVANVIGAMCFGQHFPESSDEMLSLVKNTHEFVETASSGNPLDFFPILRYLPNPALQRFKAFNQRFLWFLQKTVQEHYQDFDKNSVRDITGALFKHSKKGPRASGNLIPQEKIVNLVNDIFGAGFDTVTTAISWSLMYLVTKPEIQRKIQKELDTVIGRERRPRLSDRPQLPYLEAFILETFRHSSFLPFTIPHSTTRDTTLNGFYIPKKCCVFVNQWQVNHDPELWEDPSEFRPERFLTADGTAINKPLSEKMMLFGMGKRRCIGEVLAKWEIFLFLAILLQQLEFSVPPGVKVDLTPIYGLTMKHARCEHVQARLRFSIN

[18] = target: Cytochrome P450 3A4 (Homo sapiens, UniProt P08684); assay: Inhibition of CYP3A4 in human liver microsomes using midazolam as substrate preincubated for 5 mins followed by NADPH addition and measured after 10 mins by LC-MS/MS analysis; format: ADME, Microsome
[19] = Toxicity in CB17 SCID mouse xenografted with human MCF7 cells harboring ESR1 Y537S mutant assessed as body weight change at 30 mg/kg,po qd for 4 weeks; format: organism-based; settings: in vivo, 672 h
[20] = Downregulation of ERalpha protein expression in tumor of CB17 SCID mouse xenografted with human MCF7 cells harboring wild type ESR1 at 10 mg/kg, po qd for 3 days and measured after 24 hrs last dose by Western blot analysis relative to control; format: functional; settings: time 3 day
[21] = Volume of distribution at steady state in Sprague-Dawley rat at 1 mg/kg, iv and measured upto 24 hrs by LC-MS/MS analysis; settings: in vivo
[22] = Cmax in ICR mouse at 3 mg/kg, po and measured upto 24 hrs by LC-MS/MS analysis; format: ADME, organism-based; parameters: dose 3 mg/kg, time < 24 hrs, route po; settings: in vivo
[23] = target: Protein cereblon/Estrogen receptor (Homo sapiens, UniProt P03372+Q96SW2); assay: Protac activity at human ERalpha in ER positive human MCF7 cells assessed as reduction in ERalpha protein level at 0.1 to 30 nM by Western blot analysis; format: cell-based; settings: dose 0.1-30 nM
[24] = Cmax in Beagle dog at 1 mg/kg, po and measured upto 24 hrs by LC-MS/MS analysis; format: ADME, organism-based, Canis lupus familiaris; parameters: time < 24 hrs, dose 1 mg/kg, route po; settings: in vivo
[25] = Clearance in Beagle dog at 0.5 mg/kg, iv and measured upto 24 hrs by LC-MS/MS analysis; format: ADME, organism-based, Canis lupus familiaris; settings: in vivo
[26] = Drug concentration in tumor of CB17 SCID mouse xenografted with human MCF7 cells harboring ESR1 D538G mutant at 10 mg/kg, po qd for 3 days and measured after 6 hrs last dose by LC-MS/MS analysis; format: ADME, organism-based, Neoplasm; settings: time 3 day, read-out: Ct
[27] = Drug concentration in plasma of CB17 SCID mouse xenografted with human MCF7 cells harboring ESR1 Y537S mutant at 10 mg/kg, po qd for 3 days and measured after 6 hrs last dose by LC-MS/MS analysis; format: ADME, organism-based; settings: time 3 day

Chain of Cytochrome P450 3A4 (P08684 whole entry): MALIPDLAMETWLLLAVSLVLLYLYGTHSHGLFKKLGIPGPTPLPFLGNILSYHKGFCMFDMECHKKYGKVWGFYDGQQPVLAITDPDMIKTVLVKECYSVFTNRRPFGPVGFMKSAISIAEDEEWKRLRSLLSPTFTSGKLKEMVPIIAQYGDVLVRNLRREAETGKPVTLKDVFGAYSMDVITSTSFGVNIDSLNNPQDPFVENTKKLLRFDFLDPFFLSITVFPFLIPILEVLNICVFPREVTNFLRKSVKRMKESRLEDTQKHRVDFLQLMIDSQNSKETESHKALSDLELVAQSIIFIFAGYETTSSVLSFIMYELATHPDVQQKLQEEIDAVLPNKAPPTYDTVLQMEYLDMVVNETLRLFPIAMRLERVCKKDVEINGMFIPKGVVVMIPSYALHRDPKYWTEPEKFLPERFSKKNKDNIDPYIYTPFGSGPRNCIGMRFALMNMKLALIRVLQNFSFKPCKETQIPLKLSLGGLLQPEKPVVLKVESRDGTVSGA
Chain of Cytochrome P450 2C19 (P33261 whole entry): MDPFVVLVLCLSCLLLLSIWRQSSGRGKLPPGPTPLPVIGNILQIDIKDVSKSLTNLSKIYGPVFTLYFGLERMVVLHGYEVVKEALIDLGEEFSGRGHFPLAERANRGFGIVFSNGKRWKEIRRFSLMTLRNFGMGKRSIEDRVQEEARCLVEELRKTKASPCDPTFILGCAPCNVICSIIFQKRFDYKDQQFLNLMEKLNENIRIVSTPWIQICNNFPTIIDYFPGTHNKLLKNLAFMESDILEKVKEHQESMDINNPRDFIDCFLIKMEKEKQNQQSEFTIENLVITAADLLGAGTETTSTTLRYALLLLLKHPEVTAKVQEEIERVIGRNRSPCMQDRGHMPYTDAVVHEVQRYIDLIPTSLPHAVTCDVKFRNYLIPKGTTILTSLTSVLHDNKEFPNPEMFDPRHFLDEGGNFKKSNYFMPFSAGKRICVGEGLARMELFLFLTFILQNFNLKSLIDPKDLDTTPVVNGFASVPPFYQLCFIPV
Chain of Cytochrome P450 2D6 (P10635 whole entry): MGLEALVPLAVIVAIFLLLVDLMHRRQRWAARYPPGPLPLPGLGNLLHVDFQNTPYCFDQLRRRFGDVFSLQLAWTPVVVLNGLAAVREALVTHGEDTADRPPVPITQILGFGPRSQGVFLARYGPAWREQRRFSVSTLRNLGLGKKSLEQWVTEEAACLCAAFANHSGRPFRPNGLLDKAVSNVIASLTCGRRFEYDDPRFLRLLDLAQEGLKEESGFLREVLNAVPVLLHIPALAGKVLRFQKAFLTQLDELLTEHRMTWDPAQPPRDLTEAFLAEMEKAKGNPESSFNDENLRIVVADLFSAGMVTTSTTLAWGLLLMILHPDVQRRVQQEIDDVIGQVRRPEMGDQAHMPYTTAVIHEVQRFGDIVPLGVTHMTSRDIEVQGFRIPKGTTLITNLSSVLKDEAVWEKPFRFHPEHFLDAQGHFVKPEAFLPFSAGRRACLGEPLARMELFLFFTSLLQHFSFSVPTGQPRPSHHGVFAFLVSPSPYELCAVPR
Chain of Protein cereblon/Estrogen receptor (P03372 whole entry, looked up): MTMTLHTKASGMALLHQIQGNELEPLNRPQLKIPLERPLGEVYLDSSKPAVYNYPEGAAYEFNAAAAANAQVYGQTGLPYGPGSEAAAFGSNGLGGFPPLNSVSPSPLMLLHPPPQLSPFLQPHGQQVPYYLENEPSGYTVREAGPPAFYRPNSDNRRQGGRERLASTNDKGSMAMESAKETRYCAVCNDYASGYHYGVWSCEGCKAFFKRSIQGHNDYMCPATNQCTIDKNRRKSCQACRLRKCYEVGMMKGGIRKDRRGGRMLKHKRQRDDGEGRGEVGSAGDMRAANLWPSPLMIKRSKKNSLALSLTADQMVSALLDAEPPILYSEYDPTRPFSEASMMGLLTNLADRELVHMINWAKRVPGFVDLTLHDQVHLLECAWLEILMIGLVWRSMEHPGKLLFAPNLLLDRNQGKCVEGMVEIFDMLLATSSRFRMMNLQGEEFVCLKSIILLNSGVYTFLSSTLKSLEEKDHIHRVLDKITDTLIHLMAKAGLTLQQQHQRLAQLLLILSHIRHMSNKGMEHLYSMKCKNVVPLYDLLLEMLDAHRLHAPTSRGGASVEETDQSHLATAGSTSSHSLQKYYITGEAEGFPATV
Chain of Protein cereblon/Estrogen receptor (Q96SW2 whole entry, looked up): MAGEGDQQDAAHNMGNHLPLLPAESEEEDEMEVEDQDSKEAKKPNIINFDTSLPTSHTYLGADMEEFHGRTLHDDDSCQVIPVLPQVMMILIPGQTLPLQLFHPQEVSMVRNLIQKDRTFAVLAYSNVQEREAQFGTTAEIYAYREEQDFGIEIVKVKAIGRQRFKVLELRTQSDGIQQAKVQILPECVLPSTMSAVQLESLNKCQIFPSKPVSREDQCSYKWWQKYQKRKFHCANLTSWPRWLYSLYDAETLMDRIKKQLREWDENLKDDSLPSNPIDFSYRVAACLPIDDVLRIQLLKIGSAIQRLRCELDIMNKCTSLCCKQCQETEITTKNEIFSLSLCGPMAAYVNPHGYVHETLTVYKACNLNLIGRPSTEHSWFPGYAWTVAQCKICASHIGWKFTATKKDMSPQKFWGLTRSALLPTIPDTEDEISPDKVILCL
Chain of Cytochrome P450 2C9 (P11712 whole entry): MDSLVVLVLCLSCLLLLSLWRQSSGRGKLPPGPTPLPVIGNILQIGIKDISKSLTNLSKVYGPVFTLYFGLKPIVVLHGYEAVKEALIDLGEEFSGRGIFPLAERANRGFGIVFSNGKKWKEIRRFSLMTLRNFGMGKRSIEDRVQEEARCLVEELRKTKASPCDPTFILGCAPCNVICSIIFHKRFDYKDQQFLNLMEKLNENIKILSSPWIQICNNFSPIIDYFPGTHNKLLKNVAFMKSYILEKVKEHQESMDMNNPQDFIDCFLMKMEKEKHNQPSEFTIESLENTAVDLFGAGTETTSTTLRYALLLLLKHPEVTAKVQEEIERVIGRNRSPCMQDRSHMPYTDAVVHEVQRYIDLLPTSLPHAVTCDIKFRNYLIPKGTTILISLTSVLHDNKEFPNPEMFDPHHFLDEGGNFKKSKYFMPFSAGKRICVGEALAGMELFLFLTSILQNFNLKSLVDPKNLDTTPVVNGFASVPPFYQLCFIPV

Compound: C[C@@H]1Cc2c(ccc3[nH]ncc23)[C@@H](c2c(F)cc(N3CCC4(CCN(C(=O)CN5Cc6cc7c(cc6C5)C(=O)N(C5CCC(=O)NC5=O)C7=O)CC4)CC3)cc2F)N1CC(F)F (some centres not stated)
- IC50 [1]: > 10 µM
- IC50 [2]: > 10 µM
- concentration at 72 h [3]: 433 ng/mL
- Activity [4]: 66%
- Activity [5]: Non-Toxic
- IC50 [6]: > 10 µM
- concentration at 72 h [7]: 1410 ng/mL
- AUC at 24 h [8]: 937 ng·h/mL
- concentration at 72 h [9]: 18 ng/mL
- Activity [10]: 66%
- clearance at 24 h [11]: 7.4 mL/min/kg
- inhibition in vivo at 10 mg/kg [12]: 13%
- inhibition in vivo at 10 mg/kg [13]: 99%
- inhibition in vivo at 10 mg/kg [14]: 38%
- concentration at 72 h [15]: 385 ng/mL
- Cmax at 24 h [16]: 141 ng/mL
- IC50 [17]: > 10 µM
- IC50 [18]: > 10 µM
- Activity [19]: Non-Toxic
- Activity [20]: 70%
- Vd at 24 h [21]: 1.3 L/kg
- Cmax [22]: 260 ng/mL
- Activity [23]: Dose-Dependent Effect
- Cmax [24]: 87 ng/mL
- clearance [25]: 11 mL/min/kg
- concentration at 72 h [26]: 1050 ng/mL
- concentration at 72 h [27]: 502 ng/mL
